Earlier results on 4 molecules are cited in patent US10391087B2, “Combination of oxymetazoline and ipratropium in topical nasal application for the treatment of a cough” (priority 2015, dated 2019).

Like-named read-outs stand apart in the source and are kept apart here.

The subject of data set [1] is ileum guinea pigs nerve tissue. To be noted: range 20 to 70% with increasing concentrations of noradrenaline.
In data set [2] the test system is nasal secretion (rhinorrhea).
Another data set concerns the target T1, human α1A-adrenoceptors (Homo sapiens, UniProt P35348).
T1 sequence (P35348 1-466): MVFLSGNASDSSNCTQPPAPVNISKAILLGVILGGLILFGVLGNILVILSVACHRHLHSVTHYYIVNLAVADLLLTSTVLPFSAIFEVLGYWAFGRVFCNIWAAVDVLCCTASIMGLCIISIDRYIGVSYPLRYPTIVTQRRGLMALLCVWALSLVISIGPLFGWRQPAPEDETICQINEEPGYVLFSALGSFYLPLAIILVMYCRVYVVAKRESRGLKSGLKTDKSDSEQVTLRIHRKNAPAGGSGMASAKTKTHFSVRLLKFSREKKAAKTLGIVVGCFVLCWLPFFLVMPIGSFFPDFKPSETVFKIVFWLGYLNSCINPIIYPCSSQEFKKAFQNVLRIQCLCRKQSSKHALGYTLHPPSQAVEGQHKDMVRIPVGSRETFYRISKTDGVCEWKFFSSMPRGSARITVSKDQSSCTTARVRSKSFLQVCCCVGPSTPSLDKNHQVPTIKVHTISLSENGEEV
Particulars: heterologous cells expressing human α1A-adrenoceptors.

A further data set relates to α-1 and α-2 receptors. Particulars: inhibited by α-1 antagonist prazosin, minimal inhibition by α-2 antagonist yohimbine.
In data set [3] the test system is cardiac response of rabbit vagal electrical stimulation. Particulars: rabbit heart.

Consider `NC[C@H](O)c1ccc(O)c(O)c1` [Noradrenaline, noradrenaline], for which, in data set [1], the “reduction of acetilcoline discharge, average” value was 56.8%.
`CC(C)[N+]1(C)[C@@H]2CC[C@H]1C[C@@H](OC(=O)C(CO)c1ccccc1)C2` (stereo partly shown) [ipratropium]: the nasal discharge result in data set [2] (four studies, ipratropium alone, intranasally) was “lower nasal discharge”.
As to `Cc1cc(C(C)(C)C)c(O)c(C)c1CC1=NCCN1` [oximetazoline, oxymetazoline], the blood pressure result is listed as “significant increase in blood pressure” (large doses of 0.3%) and “no” (standard doses of 0.01 to 0.1%). The “Ca2+ responses” value at human α1A-adrenoceptors was “induce responses Ca^2+”. In the data set on α-1 and α-2 receptors, the contraction entry is “dose dependent contraction”. Besides, the “cardiac response of vagal electrical stimulation” value in data set [3] is listed as “significantly inhibited”.
In the case of `Cc1cc(C(C)(C)C)cc(C)c1CC1=NCCN1` [xilometazoline], the rhinorrhea result in data set [2] (5 to 10 days after start of the infectious process, p<0.05) was “decreased rhinorrhea”; in data set [2] (another study, measured on day 1 of administration), “increases”. The “nasal secretion compared with placebo” value in data set [2] (Eccles 2008, xilometazoline alone, p<0.05) is “decreased nasal secretion”.
